Assay results published in patent US20240376111A1, “COMPOSITIONS AND METHODS OF USING THE SAME FOR TREATMENT OF NEURODEGENERATIVE AND MITOCHONDRIAL DISEASE” (Mitokinin, Inc., priority 2021, published 2024).
Values joined by “and” are separate entries in the source; they are usually repeats but may differ in a detail not shown here. Identical values can stand only once. Like-named read-outs stand apart in the source and are kept apart here.

Experiments:
SKOV3 cells = assay: In vitro mitosafety (glucose/galactose) assay; details: highest mito-safe dose = highest concentration at which gal/glc>0.80 (IC20) in SKOV3 cells, divided by mt-Keima EC50
Experimental: Briefly, SKOV3 cells (ATCC HTB-77) were plated in DMEM (Corning 10-013-CV) medium containing 25 mM glucose or DMEM with no glucose (Gibco 11966-025) supplemented with 10 mM galactose at 9,000 cells/well in 96 well plates (Corning costar 3610). 24 hrs later, compounds, in DMSO, were added at various concentrations to a final 0.1% DMSO for all wells. […] After a 15 minute incubation cellular ATP levels were read out using a Promega GloMax® DiscoverMicroplate Reader.
The ratio of relative CellTiter-Glo values from cells grown in galactose to cells grown in glucose was determined (gal/glc ratio). The gal/glc ratio vs concentration is then graphed, and non-linear regression is used to find the highest concentration of MTK compound at which gal/glc>0.80 (the “highest mito-safe dose”, or IC20).

[1] = system: HeLa cells expressing mt-Keima and YFP-Parkin (HeLa MKYP); assay: Human mt-Keima mitophagy assay; type: cell-based; details: Homo sapiens
Experimental: Briefly, HeLa cells expressing mt-Keima and YFP-Parkin (HeLa MKYP) were plated at 10,000 cells/well in 96 well plates along with compounds at various concentrations. Following 16 hrs of incubation, cells were treated with 1 uM FCCP/oligomycin for 6 hours, then analyzed via FACS for the presence of mitochondria in lysosomes (as determined by an emissions spectrum shift from the pH-sensitive mt-Keima tag).

[2] = HeLa MKYP cells, 16 hrs with compound, then 1 uM FCCP/oligomycin for 6 hours, FACS, read-out: EC50 in HeLa mt-Keima Mitophagy Assay

CC(C)(C#N)CC[C@@H]1COc2ccccc2[C@H]1Nc1ncnc2[nH]c(C3CC3)cc12 (relative stereo) [EP-0042291, 4-[trans-4-[(6-cyclopropyl-7H-pyrrolo[2,3-d]pyrimidin-4-yl)amino]chroman-3-yl]-2,2-dimethyl-butanenitrile]
Mito-Safety Index (highest mito-safe dose/mt-Keima EC50) (SKOV3 cells): 64.67
EC50 [1, 2]: 78 nM

FC(F)(F)c1cc2c(N[C@H]3CC4(CCCC4)Oc4ccccc43)ncnc2[nH]1 (single isomer, unassigned) [EP-0041356, N-spiro[chromane-2,1′-cyclopentane]-4-yl-6-(trifluoromethyl)-7H-pyrrolo[2,3-d]pyrimidin-4-amine]
Mito-Safety Index (highest mito-safe dose/mt-Keima EC50) (SKOV3 cells): 60.24
EC50 [1, 2]: 414 nM

COCC[C@@H]1COc2ccccc2[C@H]1Nc1ncnc2[nH]c(C(F)(F)F)cc12 (single isomer, unassigned) [EP-0041398, N-[trans-3-(2-methoxyethyl)chroman-4-yl]-6-(trifluoromethyl)-7H-pyrrolo[2,3-d]pyrimidin-4-amine]
Mito-Safety Index (highest mito-safe dose/mt-Keima EC50) (SKOV3 cells): 43.54
EC50 [1, 2]: 356 nM

COCCCC1COc2ccccc2C1Nc1ncnc2[nH]c(C(F)(F)F)cc12 (single isomer, unassigned) [EP-0041483, N-[3-(3-methoxypropyl)chroman-4-yl]-6-(trifluoromethyl)-7H-pyrrolo[2,3-d]pyrimidin-4-amine]
Mito-Safety Index (highest mito-safe dose/mt-Keima EC50) (SKOV3 cells): 48.05
EC50 [1, 2]: 70 nM

CC(C)(C#N)CCC1COc2ccccc2C1Nc1ncnc2[nH]c(C3CC3)cc12 (single isomer, unassigned) [EP-0042850, 4-[trans-4-[(6-cyclopropyl-7H-pyrrolo[2,3-d]pyrimidin-4-yl)amino]chroman-3-yl]-2,2-dimethyl-butanenitrile]
Mito-Safety Index (highest mito-safe dose/mt-Keima EC50) (SKOV3 cells): 70.99
EC50 [1, 2]: 90 nM

COC[C@]1(C)C[C@@H](Nc2ncnc3[nH]c(C(F)(F)F)cc23)c2ccccc2O1 (single isomer, unassigned) [EP-0043980]
Mito-Safety Index (highest mito-safe dose/mt-Keima EC50) (SKOV3 cells): 73.0
EC50 [1, 2]: 100 nM

CC(C)(C#N)CO[C@@H]1COc2ccccc2[C@H]1Nc1ncnc2[nH]c(C3CC3)cc12 (stereo in doubt) [EP-0042976, 3-[(3S,4R)-4-[(6-cyclopropyl-7H-pyrrolo[2,3-d]pyrimidin-4-yl)amino]chroman-3-yl]oxy-2,2-dimethyl-propanenitrile]
Mito-Safety Index (highest mito-safe dose/mt-Keima EC50) (SKOV3 cells): 302.16
EC50 [1, 2]: 53 nM

FC(F)(F)c1cc2c(NC3CC4(CCCC4)Oc4ccccc43)ncnc2[nH]1 (stereo not drawn) [EP-0041220]
Mito-Safety Index (highest mito-safe dose/mt-Keima EC50) (SKOV3 cells): 41.11
EC50 [1, 2]: 608 nM

COCC[C@H]1COc2ccccc2[C@@H]1Nc1ncnc2[nH]c(C(F)(F)F)cc12 [EP-0041252]
Mito-Safety Index (highest mito-safe dose/mt-Keima EC50) (SKOV3 cells): 39.13
EC50 [1, 2]: 634 nM

COCCO[C@H]1COc2cc(F)ccc2[C@@H]1Nc1ncnc2[nH]c(C3CC3)cc12 [EP-0042287, 6-cyclopropyl-N-[(3R,4S)-7-fluoro-3-(2-methoxyethoxy)chroman-4-yl]-7H-pyrrolo[2,3-d]pyrimidin-4-amine]
Mito-Safety Index (highest mito-safe dose/mt-Keima EC50) (SKOV3 cells): 38.56
EC50 [1, 2]: 180 nM

COCCO[C@H]1COc2cc(F)ccc2[C@@H]1Nc1ncnc2[nH]c(C(F)(F)F)cc12 [EP-0042288, N-[(3R,4S)-7-fluoro-3-(2-methoxyethoxy)chroman-4-yl]-6-(trifluoromethyl)-7H-pyrrolo[2,3-d]pyrimidin-4-amine]
Mito-Safety Index (highest mito-safe dose/mt-Keima EC50) (SKOV3 cells): 40.57
EC50 [1, 2]: 397 nM

COCCCO[C@H]1COc2ccccc2[C@@H]1Nc1ncnc2[nH]c(C3CC3)cc12 [EP-0042529, 4,6-cyclopropyl-N-[(3R,4S)-3-(3-methoxypropoxy)chroman-4-yl]-7H-pyrrolo[2,3-d]pyrimidin-4-amine]
Mito-Safety Index (highest mito-safe dose/mt-Keima EC50) (SKOV3 cells): 80.20
EC50 [1, 2]: 95 nM

COC(C)(C)CO[C@H]1COc2ccccc2[C@@H]1Nc1ncnc2[nH]c(C3CC3)cc12 [EP-0042538, 6-cyclopropyl-N-[(3R,4S)-3-(2-methoxy-2-methyl-propoxy)chroman-4-yl]-7H-pyrrolo[2,3-d]pyrimidin-4-amine]
Mito-Safety Index (highest mito-safe dose/mt-Keima EC50) (SKOV3 cells): 51.11
EC50 ([1]; HeLa, refers to the table, read-out: EC50): < 0.03 nM
EC50 [1, 2]: 30 nM

CC(C)(O)CO[C@H]1COc2ccccc2[C@@H]1Nc1ncnc2[nH]c(C3CC3)cc12 [EP-0042541, 1-[(3R,4S)-4-[(6-cyclopropyl-7H-pyrrolo[2,3-d]pyrimidin-4-yl)amino]chroman-3-yl]oxy-2-methyl-propan-2-ol]
Mito-Safety Index (highest mito-safe dose/mt-Keima EC50) (SKOV3 cells): 50.82
EC50 [1, 2]: 123 nM

COC(C)(C)CO[C@H]1COc2ccccc2[C@@H]1Nc1ncnc2[nH]c(C(F)(F)F)cc12 [EP-0042655, N-[(3R,4S)-3-(2-methoxy-2-methyl-propoxy)chroman-4-yl]-6-(trifluoromethyl)-7H-pyrrolo[2,3-d]pyrimidin-4-amine]
Mito-Safety Index (highest mito-safe dose/mt-Keima EC50) (SKOV3 cells): 38.50
EC50 [1, 2]: 119 nM

CC(C)(O)CO[C@H]1COc2ccccc2[C@@H]1Nc1ncnc2[nH]c(C(F)(F)F)cc12 [EP-0042979, 2-methyl-1-[(3R,4S)-4-[[6-(trifluoromethyl)-7H-pyrrolo[2,3-d]pyrimidin-4-yl]amino]chroman-3-yl]oxy-propan-2-ol]
Mito-Safety Index (highest mito-safe dose/mt-Keima EC50) (SKOV3 cells): 53.45
EC50 [1, 2]: 468 nM

CC(C)(C#N)CO[C@H]1COc2ccccc2[C@@H]1Nc1ncnc2[nH]c(C(F)(F)F)cc12 [EP-0043230, 2,2-dimethyl-3-[(3R,4S)-4-[[6-(trifluoromethyl)-7H-pyrrolo[2,3-d]pyrimidin-4-yl]amino]chroman-3-yl]oxy-propanenitrile]
Mito-Safety Index (highest mito-safe dose/mt-Keima EC50) (SKOV3 cells): 43.73
EC50 [1, 2]: 417 nM

CC(C)(F)CO[C@H]1COc2ccccc2[C@@H]1Nc1ncnc2[nH]c(C(F)(F)F)cc12 [EP-0043741, N-[(3R,4S)-3-(2-fluoro-2-methyl-propoxy)chroman-4-yl]-6-(trifluoromethyl)-7H-pyrrolo[2,3-d]pyrimidin-4-amine]
Mito-Safety Index (highest mito-safe dose/mt-Keima EC50) (SKOV3 cells): 49.0
EC50 [1, 2]: 510 nM

FC(F)(F)c1cc2c(N[C@H]3c4ccccc4OC[C@@H]3OCC3CC3)ncnc2[nH]1 [EP-0043810, N-((3R,4S)-3-(cyclopropylmethoxy)chroman-4-yl)-6-(trifluoromethyl)-7H-pyrrolo[2,3-d]pyrimidin-4-amine]
Mito-Safety Index (highest mito-safe dose/mt-Keima EC50) (SKOV3 cells): 46.3
EC50 [1, 2]: 540 nM

CCO[C@H]1COc2ccccc2[C@@H]1Nc1ncnc2[nH]c(C(F)(F)F)cc12 [EP-0043811, N-((3R,4S)-3-ethoxychroman-4-yl)-6-(trifluoromethyl)-7H-pyrrolo[2,3-d]pyrimidin-4-amine]
Mito-Safety Index (highest mito-safe dose/mt-Keima EC50) (SKOV3 cells): 26.9
EC50 [1, 2]: 930 nM

CC(C)CO[C@H]1COc2ccccc2[C@@H]1Nc1ncnc2[nH]c(C(F)(F)F)cc12 [EP-0043813, N-((3R,4S)-3-isobutoxychroman-4-yl)-6-(trifluoromethyl)-7H-pyrrolo[2,3-d]pyrimidin-4-amine]
Mito-Safety Index (highest mito-safe dose/mt-Keima EC50) (SKOV3 cells): 147.1
EC50 [1, 2]: 170 nM

Fc1ccc2c(c1)OC[C@H](OCC1CC1)[C@H]2Nc1ncnc2[nH]c(C(F)(F)F)cc12 [EP-0043819, N-((3R,4S)-3-(cyclopropylmethoxy)-7-fluorochroman-4-yl)-6-(trifluoromethyl)-7H-pyrrolo[2,3-d]pyrimidin-4-amine]
Mito-Safety Index (highest mito-safe dose/mt-Keima EC50) (SKOV3 cells): 36.7
EC50 [1, 2]: 680 nM

FC(F)(F)c1cc2c(N[C@H]3c4ccccc4OC[C@@H]3OCC3COC3)ncnc2[nH]1 [EP-0043826, N-((3R,4S)-3-(oxetan-3-ylmethoxy)chroman-4-yl)-6-(trifluoromethyl)-7H-pyrrolo[2,3-d]pyrimidin-4-amine]
Mito-Safety Index (highest mito-safe dose/mt-Keima EC50) (SKOV3 cells): 60.4 and 60.3
EC50 [1, 2]: 280 nM

FC(F)(F)c1cc2c(N[C@H]3c4ccccc4OC[C@@H]3OCC3CCOC3)ncnc2[nH]1 (stereo partly drawn) [EP-0043842, N-((3R,4S)-3-((tetrahydrofuran-3-yl)methoxy)chroman-4-yl)-6-(trifluoromethyl)-7H-pyrrolo[2,3-d]pyrimidin-4-amine]
Mito-Safety Index (highest mito-safe dose/mt-Keima EC50) (SKOV3 cells): 38.4
EC50 [1, 2]: 620 nM

CC(C)CO[C@H]1COc2ccccc2[C@@H]1Nc1nccc2[nH]c(C(F)(F)F)cc12 [EP-0043866]
Mito-Safety Index (highest mito-safe dose/mt-Keima EC50) (SKOV3 cells): 32.6
EC50 [1, 2]: 340 nM
